From patent US9987264B2, “Method and composition for treating a serotonin receptor-mediated condition” (Vanda Pharmaceuticals Inc., priority 2007, dated 2018)

Experiments:
platelet rich plasma = assay: platelet aggregation assay (ADP-induced, serotonin-potentiated); assay type: cell-based, albino rabbits; details: Oryctolagus cuniculus
Method: In this assay, platelet rich plasma was obtained from albino rabbits. Platelet aggregation was induced in the presence of 3 μM adenosine diphosphate (ADP) and was potentiated by the addition of 10 μM serotonin. 4-[3-[4-(6-fluoro-1,2,-benzisoxazol-3-yl)-1-piperidinyl]propoxyl]-3-methoxy-benzoic acid inhibited the platelet aggregation in the presence of serotonin within 5 minutes, by 30, 50, 60, and 79% at the concentrations of 6 μM, 60 μM, 0.6 mM, and 1 mM, respectively.

[1] = DMPK studies, brain radioactivity after [14C]-labelled compound; assay type: in vivo; details: rats treated with [14C]-labelled compound
Source text: 4-[3-[4-(6-fluoro-1,2,-benzisoxazol-3 -yl)-1-piperidinyl]propoxyl]-3-methoxy-benzoic acid appears not to cross the blood-brain barrier. Specifically, in DMPK studies using rats treated with [14C] […] Therefore, 4-[3-[4-(6-fluoro-1,2,-benzisoxazol-3-yl)-1-piperidinyl]propoxyl]-3-methoxy-benzoic acid is particularly useful in conditions that are not mediated, to a substantial degree, by receptors in the brain.

human 5HT2A receptor = human 5HT2A receptor (Homo sapiens, UniProt P28223); assay: radioligand binding study, human 5HT2A receptor
Sequence of human 5HT2A receptor (P28223 whole entry): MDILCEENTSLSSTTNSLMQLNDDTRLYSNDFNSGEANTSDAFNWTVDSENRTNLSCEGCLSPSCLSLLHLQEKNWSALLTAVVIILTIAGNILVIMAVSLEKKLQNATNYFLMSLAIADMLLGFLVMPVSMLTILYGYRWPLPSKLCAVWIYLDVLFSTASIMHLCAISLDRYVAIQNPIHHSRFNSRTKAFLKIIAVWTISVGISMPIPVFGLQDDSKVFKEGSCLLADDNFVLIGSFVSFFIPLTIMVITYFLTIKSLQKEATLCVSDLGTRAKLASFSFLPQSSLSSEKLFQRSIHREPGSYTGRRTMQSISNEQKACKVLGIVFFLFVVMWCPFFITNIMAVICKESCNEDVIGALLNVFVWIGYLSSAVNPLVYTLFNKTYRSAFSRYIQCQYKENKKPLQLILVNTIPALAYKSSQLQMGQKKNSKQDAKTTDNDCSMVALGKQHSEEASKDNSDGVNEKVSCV
Source text: In a radioligand binding study, 4-[3-[4-(6-fluoro-1,2,-benzisoxazol-3-yl)-1-piperidinyl]propoxy]-3-methoxy-benzoic acid had the following activity against the human 5HT2A receptor: […]

SMILES: COc1cc(C(=O)O)ccc1OCCCN1CCC(c2noc3cc(F)ccc23)CC1 [4-[3-[4-(6-fluoro-1,2,-benzisoxazol-3-yl)-1-piperidinyl]propoxy]-3-methoxy-benzoic acid]
- inhibition at 6 µM (platelet rich plasma; 5 min, 6 μM, 3 μM ADP + 10 μM serotonin, within 5 minutes): 30%
- inhibition at 60 µM (platelet rich plasma; 5 min, 60 μM, 3 μM ADP + 10 μM serotonin, within 5 minutes): 50%
- inhibition at 600 µM (platelet rich plasma; 5 min, 0.6 mM, 3 μM ADP + 10 μM serotonin, within 5 minutes): 60%
- inhibition at 1000 µM (platelet rich plasma; 5 min, 1 mM, 3 μM ADP + 10 μM serotonin, within 5 minutes): 79%
- radioactivity concentrations in the brain [1]: none of the animals had measurable radioactivity concentrations in the brain
- IC50 (human 5HT2A receptor): 13.7 nM
- Ki (human 5HT2A receptor): 3.91 nM
- inhibition at 0.03 µM (human 5HT2A receptor): 66%
- nH (human 5HT2A receptor): 1.05 +/− .091

SMILES: O=C(c1ccc(F)cc1)C1CCN(CCn2c(=O)[nH]c3ccccc3c2=O)CC1 [Ketanserin, reference compound]
- inhibition at 100 µM (platelet rich plasma; 100 μM, positive control, same conditions, read-out: inhibitory effect on platelet aggregation): 55%
